Experimental data from patent US20160317654A1, “COMBINATION THERAPY WITH RAR ALPHA AGONISTS FOR ENHANCING TH1 RESPONSE” (King's College London, priority 2015, published 2016).

System: fully committed Th1 cells
Assay: Secondary repolarisation of sorted IFN-γ (eYFP+) Th1 cells under Th1 conditions in the presence of RAR inhibitor or vehicle
Assay type: cell-based, mouse
Settings: IFN-γ (eYFP+) Th1 cells sorted day 7, restimulated under Th1 conditions for 5 days with LE540 (1 μM) vs vehicle (DMSO)
Procedure: Experimental conditions were as follows. Naïve CD4^+CD25^negCD44^loCD62L^hi T-cells were isolated by cell sorting by FACSAria (BD) after enrichment with a CD4^+ T-cell negative selection kit (Miltenyi Biotec). T-cell depleted splenocytes were prepared using a CD3^+ microbead selection kit (Miltenyi Biotec) followed by irradiation at 3000 rad. Naïve CD4+ T-cells were cultured for 3 days with irradiated T-cell-depleted splenocytes at a ratio of 1:5 in the presence of 5 μg/ml of anti-CD3 (145-2C11) under Th0 cell conditions (IL-2 100 IU/ml, anti-IL-4 (11B11) and anti-IFN-γ (XMG 1.2), 10 μg/ml each); Th1 cell conditions (100 IU/ml of IL-2, 10 ng/ml of IL-12, and anti-IL-4); Th2 cell conditions (100 IU/ml of IL-2, 10 ng/ml of IL-4, anti-IL-12 (C17.8), and anti-IFN-γ (XMG 1.2); or Th17 cell conditions, 5 ng/ml TGFβ, 20 ng/ml IL-6, 10 ng/ml IL-1β, anti-IL-4, and anti-IFN-γ). Cells were expanded for an additional 3-4 days. Where indicated, 10 ng/ml IFN-γ or 10 μg/ml anti-IFN-γ was added. In secondary repolarisation assays, where specified, LE540 (1 μM) or DMSO (vehicle control) was added to the media. Cytokines were from R&D. Anti-CD3 was from BioXcell and other antibodies were from BD Biosciences. All cell cultures were performed in complete RPMI containing 10% fetal bovine serum (FBS), 55 µM β-mercaptoethanol, HEPES, non-essential amino acids, glutamine, penicillin and streptomycin.
For analysis of cytokine production, cells were restimulated with 100 ng/ml phorbol 12-myristate 13-acetate (PMA) and 500 ng/ml ionomycin in the presence of monensin for 4-5 h at 37° C. in a tissue culture incubator. Cell surface staining was carried out in PBS with 2% FBS. For live cell analysis or cell sorting, dead cells were excluded by staining with SYTOX blue (Invitrogen). […] Data were collected with a LSR Fortessa (BD) and results were analyzed with FlowJo software (Tree Star). […]

**Q.** CN1c2cc3c(cc2N=C(c2ccc(C(=O)O)cc2)c2ccc4ccccc4c21)C(C)(C)CCC3(C)C [LE540] was tested. Which “Intracellular IFN-γ expression following PMA and ionomycin stimulation” value (FIG. 12B) did it give?
**A.** modest reductions in IFN-γ expression

**Q.** And the “Intracellular expression of RORγt” value (flow cytometry, FIG. 4B)?
**A.** emergence of cells co-expressing RORγt

**Q.** What about the “Intracellular expression of T-bet” value (flow cytometry, FIG. 4B) of the same compound?
**A.** down-regulation of T-bet
